Converted amounts (≈) assume the structure as drawn.
Tests used:
[1] = tested on: hypoxic cells in HT29 tumours; experiment: HT29 excision assay (drug after 20 Gy radiation, clonogenic survival); assay type: in vivo, human; conditions: log10 kill of hypoxic cells in HT29 tumours, additional to radiation alone; MTD or 75% of MTD; Table 2
From the text: In order to test the validity of this PK/PD model as a tool for predicting the antitumour activity of TPZ analogues, the inventors determined the key PK/PD parameters for 13 TPZ analogues, and TPZ itself, for the HT29 human colon carcinoma cell line. These parameters were then used to calculate the expected killing in hypoxic regions of HT29 tumours following a single intraperitoneal dose of the compounds at their maximum tolerated dose. The results of this calculation were then compared with measured killing of hypoxic cells in HT29 tumours, determined by administering the compounds immediately (within 5 min) after gamma irradiation (cobalt 60, 20 Gy) to sterilise oxygenated cells in the tumours. Tumours were removed 18 hours later and the number of surviving cells determined by clonogenic assay. The measured PK/PD parameters, model prediction (using the above 3D microvascular network), and experimentally determined hypoxic cell kill is shown in Table 1, and the relationship between predicted and measured cell kill in FIG. 4. The prediction is statistically highly significant (p=0.001, Fisher exact test). […] If the extravascular transport component was excluded from the model, the R^2 for this regression was only 0.28 and the relationship was not statistically significant.
Animals were treated with radiation alone (RAD, 20 Gy whole body); RAD+TPZ (316 μmol/kg); compound 3 (562 μmol/kg); RAD+compound 3 (562 μmol/kg). Tumours were excised 18 hr after treatment and clonogenic survival determined by staining colonies 14 days later. Each symbol represents a separate tumour. p<0.01 (one way ANOVA with Dunnett's test) for RAD+compound 3 and for RAD+TPZ versus RAD only. Horizontal lines are the historical means for untreated controls (upper line) and 20 Gy radiation only (lower line).
Compounds were evaluated with single dose radiation using s.c. HT29 tumors (average of two largest diameters 7-10 mm) grown by inoculating 10^7 cells (obtained by enzymatic dissociation of multicellular spheroids). Drugs were administered as single i.p. doses at their MTD with the following groups in each experiment. A: vehicle control, B: test drug, C: Radiation (20 Gy, cobalt-60, whole body irradiation), D: TPZ (316 μmol/kg) 5 min after radiation, E: Test drug 5 min after radiation. Each group included 3 (A, B) or 5 (C-E) mice. Tumors were excised 18 hr after treatment and plated to determine clonogenicity. Hypoxic cytotoxicity is determined by the difference in surviving fraction between groups C and E, while comparison of A and B evaluates oxic cell killing. Total yield of clonogens was used as the key parameter if cell yields were affected by treatment. Results of this assay are illustrated for compound 3 (and TPZ) in FIG. 5.

[2] = Plasma pharmacokinetics, AUC of free drug in CD-1 nude mice; assay type: in vivo, mouse; conditions: CD-1 nude, mouse, plasma, ip, mouse plasma, free drug, at the MTD or 75% of the MTD; Table 2; read-out: AUC
Description: The area under the concentration time curve for free drug (AUCf) in mouse plasma at the maximum tolerated dose (MTD) was determined either experimentally or by calculation.
The compound was formulated in a suitable vehicle (e.g. 0.9% saline, 5% DMSO in 0.9% saline) and administered intraperitoneally (i.p.) as single dose to CD-1 nude mice in a dose-escalating format using 1.33-fold dose increments.
The compound was administered to CD-1 nude mice in a suitable formulation as a single dose (i.p.) at the MTD. Blood samples were collected by retro-orbital sinus bleed or cardiac puncture after which the mouse was culled, or by serial bleeding from the tail vein. Typical time points were 15, 30, 60, and 120 min after administration. Blood was collected in a heparinised container and centrifuged to collect the plasma. The plasma concentration of the compound was determined by HPLC or LCMS using suitable sample preparation and analytical methods. Calibration was done with internal or external standards. The area under the concentration-time curve (AUC) for total (free plus bound) drug was calculated using the linear/log trapezoidal rule and extrapolation to infinity OR standard non-compartmental (PK) modelling.
Plasma protein binding was measured by the determination of the free fraction (FF) by equilibrium dialysis at 37° C. in 50% (v/v) mouse plasma in phosphate-buffered saline (pH 7.4), using a single drug concentration at or near the observed or extrapolated maximum concentration in plasma (Cmax). Compound concentrations after dialysis were determined by HPLC or LCMS.
AUCf for the compound administered as a single dose (i.p.) to CD-1 nude mice at the MTD can be estimated using the following regression equation: Log10(AUCf)=a+b×log Pneutral+c×log10(IC50)+d×log10(HCR)+e×log10(DMCL)+f×log10(kmet)+g×(log Pneutral)^2 where the coefficients are described in the following table: […]

[3] = tested on: human colon carcinoma cell line HT-29; experiment: Proliferation assay (IC50) under aerobic and hypoxic conditions; assay type: cell-based; conditions: for IC50: Homo sapiens, HT-29, HT29, anoxic, 4 hr exposure; for HCR: hypoxic cytotoxicity ratio: aerobic IC50 / hypoxic IC50, HT29
Description: Compounds representative of the invention were evaluated under both aerobic and hypoxic conditions in a proliferation assay (IC50) using the human colon carcinoma cell line HT-29 as previously described [Hay et al, J. Med. Chem, 2003, 46, 169]. For each experiment, compounds were simultaneously tested under both oxic and hypoxic conditions and included TPZ as an independent internal control at the front and back of the assay. In all cases, a 8-methyl-5-nitroquinoline derivative was used as a second internal control to confirm that strict hypoxia was present during the experiment [Siim et al., Br. J. Cancer 1994, 70, 596].

[4] = Solubility in culture medium; assay type: physicochemical; conditions: culture medium (αMEM with 5% foetal bovine serum), plasma or biological fluid, thermodynamic from solid; culture medium (αMEM, 5% foetal bovine serum), pH 7.4; no unit in table, threshold is 2 mM
Description: Solubility is determined in laboratory culture medium (alpha minimal essential medium (αMEM) with 5% foetal bovine serum) saturated with 5% carbon dioxide at pH 7.4, by addition of excess compound and sonication at ambient temperature for 15 minutes. Alternatively the compound is diluted from a concentrated stock solution in DMSO into culture medium to give a final DMSO concentration <1%. The mixture is centrifuged at 13,000 rpm for 6 minutes and the concentration of drug in the supernatant solution is then determined by HPLC using a standard reference solution in a suitable solvent.

| Structure (SMILES) | HT29 log kill [1] | AUC [2] | IC50 [3] | HCR [3] | solubility [4] |
| --- | --- | --- | --- | --- | --- |
| CCc1ccc2c(c1)[n+]([O-])c(NCCCN1CCOCC1)n[n+]2[O-] [S, 6-Ethyl-N-[3-(4-morpholinyl)propyl]-1,2,4-benzotriazin-3-amine 1,4-Dioxide] | 0.82 | 94.9 µM·h | 10.4 µM | 35.0 | 54.9 mM (≈ 18.3 mg/mL) |
| CCOc1ccc2c(c1)[n+]([O-])c(NCCN(C)C)n[n+]2[O-] [R, N^1,N^1-Dimethyl-N^2-(6-ethoxy-1,4-dioxido-1,2,4-benzotriazin-3-yl)-1,2-ethanediamine] | 0.83 | 82.4 µM·h | 2.6 µM | 120.6 | 50.3 mM (≈ 14.8 mg/mL) |
| CCc1n[n+]([O-])c2ccc(OCCCN3CCOCC3)cc2[n+]1[O-] [U, 3-Ethyl-6-[3-(4-morpholinyl)propoxy]-1,2,4-benzotriazine 1,4-Dioxide] | 1.66 | 162 µM·h | 6.17 µM | 166.2 | 46.7 mM (≈ 15.6 mg/mL) |
| Cc1ccc2c(c1)[n+]([O-])c(NCCCN1CCOCC1)n[n+]2[O-] [O, 6-Methyl-N-[3-(4-morpholinyl)propyl]-1,2,4-benzotriazin-3-amine 1,4-Dioxide] | 1.28 | 195 µM·h | 15.5 µM | 24.7 | 42.6 mM (≈ 13.6 mg/mL) |
| COc1ccc2c(c1)[n+]([O-])c(NCCN(C)C)n[n+]2[O-] [P, N^1-(6-Methoxy-1,4-dioxido-1,2,4-benzotriazin-3-yl)-N^2,N^2-dimethyl-1,2-ethanediamine] | 1.84 | 240 µM·h | 7.65 µM | 89.3 | 45.5 mM (≈ 12.7 mg/mL) |
| CCc1n[n+]([O-])c2ccc(OCCN(C)C)cc2[n+]1[O-] [T, 2-[(3-Ethyl-1,4-dioxido-1,2,4-benzotriazin-6-yl)oxy]-N, N-dimethylethaneamine] | 0.88 | 55.7 µM·h | 1.33 µM | 307.2 | 48.5 mM (≈ 13.5 mg/mL) |
| COCCOc1ccc2c(c1)[n+]([O-])c(NCCN(C)C)n[n+]2[O-] [Q, N^1-[6-(2-Methoxyethoxy)-1,4-dioxido-1,2,4-benzotriazin-3-yl]-N^2,N^2-dimethyl-1,2-ethanediamine] | 0.53 | 256 µM·h | 4.98 µM | 162.0 | 51.2 mM (≈ 16.6 mg/mL) |
